# From article PMC7076525, “Pharmacokinetics and Intestinal Metabolism of Compound K in Rats and Mice” (Pharmaceutics, 2020)
# Read-outs that look alike come from different tables or passages of the source.
# What was measured:
# [1] = Pharmacokinetic study after intravenous compound K (2 mg/kg) in ICR mice: plasma, feces, urine; conditions: mouse
# [2] = Tissue distribution study after intravenous compound K (2 mg/kg) in ICR mice; format: in vivo; conditions: compound K IV 2 mg/kg
# Description: (§1) ICR mice and SD rats received compound K intravenously at a single dose of 2 mg/kg via tail vein and were returned to the metabolic cage with water and chow ad libitum. The animals were euthanized and blood samples (approximately 200 µL) were collected from the abdominal artery at 0.17, 0.5, 2, 4, 8, and 24 h after intravenous injection. The liver, kidney, brain, heart, lung, spleen, and testis were immediately excised, gently washed with ice-cold saline, and weighed. The tissue samples were homogenized with 4 volumes of saline. Aliquots (50 μL) of plasma and 20% tissue homogenates were stored at –80 °C until the analysis of compound K.
# (§2) The plasma samples and 20% tissue homogenates samples were each mixed with 60 μL of IS (20 ng/mL 13C-caffeine in water) and 600 μL of MTBE. The mixtures were vortexed vigorously for 10 min and centrifuged at 16,000× g for 5 min. After centrifugation, the samples were frozen at −80 °C for 2 h. The upper layer was transferred to a clean tube and evaporated to dryness under a nitrogen stream. The residue was reconfigured with 200 μL of 80% methanol consisting of 0.1% formic acid, and a 10 μL aliquot was injected into the LC-MS/MS system.
# (§3) Compound K and PPD concentrations were analyzed using a modified LC-MS/MS method of Jin et al. with an Agilent 6430 triple quadrupole LC-MS/MS system (Agilent, Wilmington, DE, USA). […]
# [3] = Pharmacokinetics, biliary excretion and metabolism of compound K in bile cannulated and non-bile cannulated rats; format: in vivo, SD rats; conditions: for AUC(0-inf) / half-life / AUC(0-t) / C0: SD, rat, plasma, iv, 2 mg/kg; for AUC(0-t): read-out: AUC12 h; for C0: read-out: C0 (initial plasma concentration)
# Description: SD rats were randomly divided into two groups: the non-bile cannulated control group and the bile cannulated group. For the bile cannulated rats, the femoral artery, femoral vein, and bile duct were cannulated with polyethylene tubes (PE-50 and PE-10; Jungdo, Seoul, Korea) under light anesthesia with isoflurane. For the control group, the femoral artery and femoral vein were cannulated with PE-50. Compound K was injected intravenously via the femoral vein at 2 mg/kg. Blood samples (approximately 200 µL) were collected from the femoral artery at 0, 0.25, 0.5, 1, 2, 4, and 8 h after the compound K injection. After each blood sampling, normal saline was injected into the femoral vein to compensate for blood loss. Bile samples were collected every 2 h for a total of 12 h. The blood samples were centrifuged at 16,000× g for 10 min, and 50 μL aliquots of plasma and 50 μL aliquots of bile were stored at −80 °C until the compound K analysis. In the non-bile cannulated rats, the complete contents of the entire gastrointestinal tract were collected using a […] filled with 30 mL pre-warmed saline. The contents were homogenized with tissue homogenizer, and 50 μL aliquots of intestinal fecal homogenates were stored at −80 °C until the analysis. The 50 μL samples of plasma, urine, 10% fecal homogenates, bile, and intestinal fecal homogenates were each mixed with 60 μL of IS (20 ng/mL 13C-caffeine in water) and 600 μL of methyl tert-butyl ether (MTBE). The mixtures were vortexed vigorously for 10 min and centrifuged at 16,000× g for 5 min. After centrifugation, the samples were frozen at −80 °C for 2 h. […] The residue was reconfigured with 200 μL of 80% methanol consisting of 0.1% formic acid, and a 10 μL aliquot was injected into the liquid chromatography–tandem mass spectrometry (LC–MS/MS) system. Compound K and PPD concentrations were analyzed using a modified LC-MS/MS method of Jin et al. with an Agilent 6430 triple quadrupole LC-MS/MS system (Agilent, Wilmington, DE, USA). […] The mobile phase consisted of 0.1% formic acid in water (8%) and 0.1% formic acid in methanol (92%) at a flow rate of 0.15 mL/min. Pharmacokinetic parameters were estimated using non-compartmental methods (WinNonlin version 2.0, Pharsight Co., Certara, NJ, USA).
# Oatp transporters [4] = experiment: Inhibition of hepatic uptake of compound K by rifampin pre-treatment in ICR mice; format: in vivo; conditions: rifampin 20 mg/kg PO 1 h before compound K IV 2 mg/kg, 0.5 and 2 h
# Description: (§4) To investigate the effect of rifampin (a representative inhibitor of the organic anion-transporting polypeptide (Oatp) transporters) on the hepatic distribution of compound K, ICR mice and SD rats were randomly divided into either control or rifampin groups. The rifampin group was orally administered with rifampin solution (20 mg/kg, dissolved in DMSO: saline = 2:8, v/v) and the control group received only the vehicle via oral gavage. One hour after rifampin treatment, mice and rats received compound K intravenously at a single dose of 2 mg/kg via tail vein. The animals were euthanized and blood samples (approximately 200 µL) were collected from the abdominal artery at 0.5 and 2 h after intravenous injection. The liver tissues were immediately excised, gently washed with ice-cold saline, and homogenized with 4 volumes of saline. Aliquots (50 μL) of plasma and 20% liver homogenates were stored at −80 °C until the analysis of compound K.
# (§5) The plasma samples and 20% tissue homogenates samples were each mixed with 60 μL of IS (20 ng/mL 13C-caffeine in water) and 600 μL of MTBE. The mixtures were vortexed vigorously for 10 min and centrifuged at 16,000× g for 5 min. After centrifugation, the samples were frozen at −80 °C for 2 h. The upper layer was transferred to a clean tube and evaporated to dryness under a nitrogen stream. […]
# [5] = parameters: method as in PMID 22584255, PMID 30013338, PMID 26680316; conditions: cited from earlier work
# Oatp transporters [6] = experiment: Inhibition of hepatic uptake of compound K by rifampin pre-treatment in SD rats; format: in vivo; conditions: rifampin 20 mg/kg PO 1 h before compound K IV 2 mg/kg, 0.5 and 2 h
# Description: as §4, §5
# [7] = Tissue distribution study after intravenous compound K (2 mg/kg) in SD rats; format: in vivo; conditions: compound K IV 2 mg/kg
# Description: as §1, §2, §3
# P-glycoprotein (P-gp) = tested on: P-glycoprotein (P-gp); parameters: method as in PMID 22584255; conditions: single oral dose 10 mg/kg; cited from earlier work
# [8] = parameters: method as in PMID 16302287; conditions: rats, cited from earlier work
# [9] = after compound K IV 2 mg/kg, over 48 h (Table 4)
# [10] = bile cannulated rat, compound K IV 2 mg/kg
# [11] = non-bile cannulated rat, compound K IV 2 mg/kg
smiles,measurement,setting,value
"CC(C)=CCCC(C)(OC1OC(CO)C(O)C(O)C1O)C1CCC2(C)C1C(O)CC1C3(C)CCC(O)C(C)(C)C3CCC12C [compound K, 20-O-beta-(D-Glucopyranosyl)-20(S)-protopanaxadiol]",AUC(0-t),"[1]; ICR, plasma, iv, 2 mg/kg",3760 ± 1640 ng·h/mL
same,C0,"[1]; ICR, plasma, iv, 2 mg/kg",400 ± 137 ng/mL
same,MRT,"[1]; ICR, plasma, iv, 2 mg/kg",11.8 ± 2 h
same,Vd,"[1]; ICR, plasma, iv, 2 mg/kg",7.08 ± 2.6 L/kg
same,clearance,"[1]; ICR, plasma, iv, 2 mg/kg",10.4 ± 4.9 mL/min/kg
same,half-life,"[1]; ICR, plasma, iv, 2 mg/kg",11.4 ± 1.5 h
same,Recovery48 h Feces,[1]; [9],28.4 ± 5.9 % of Dose
same,Recovery48 h Urine,[1]; [9],0.02 ± 0.01 % of Dose
same,"AUC ratios of other tissues (kidney, heart, lung, pancreas, testis, brain) to plasma",[2],much lower than the liver/plasma AUC ratio
same,Kp,"[2]; male, ICR, mouse, liver (relative to plasma), 0.17-24 h, read-out: liver to plasma AUC ratio",16.7
same,AUC(0-inf),[3]; [10],235 ± 126 ng·h/mL
same,half-life,[3]; [10],0.78 ± 0.11 h
same,AUC(0-t),[3]; [10],211 ± 87.3 ng·h/mL
same,C0,[3]; [10],436 ± 326 ng/mL
same,AUC(0-inf),[3]; [11],517 ± 249 ng·h/mL
same,half-life,[3]; [11],2.4 ± 0.61 h
same,AUC(0-t),[3]; [11],496 ± 253 ng·h/mL
same,C0,[3]; [11],451 ± 192 ng/mL
same,Bile12 h (biliary excretion),"[3]; bile cannulated rat, compound K IV 2 mg/kg, bile collected for 12 h",39.1 ± 5.7 % of dose
same,elimination constant,"[3]; bile-cannulated rats, one-compartment model, estimated using 5 points, r^2 0.92",0.90 h⁻¹
same,elimination constant,"[3]; non-bile cannulated (control) rats, estimated using 3 points, r^2 0.94",0.29 h⁻¹
same,liver to plasma concentration ratios with rifampin pre-treatment versus control,Oatp transporters [4],decreased
same,plasma concentration of compound K with rifampin pre-treatment versus control,Oatp transporters [4],increased
same,aqueous solubility,[5],33 µg/mL
same,liver to plasma concentration ratios with rifampin pre-treatment versus control,Oatp transporters [6],decreased
same,plasma concentration of compound K with rifampin pre-treatment versus control,Oatp transporters [6],increased
same,"AUC ratios of other tissues (kidney, heart, lung, pancreas, testis, brain) to plasma",[7],much lower than the liver/plasma AUC ratio
same,Kp,"[7]; male, SD, rat, liver (relative to plasma), 0.17-24 h, read-out: liver to plasma AUC ratio",11.1
same,AUC increase in P-gp knock-out mice compared to wild-type mice,P-glycoprotein (P-gp),23.5 fold
same,AUC increase,"[8]; intravenous injection, dose range 1–10 mg/kg (dose increase 10-fold)",11.6 fold
same,AUC increase,"[8]; oral administration, dose range 5–20 mg/kg (dose increase four-fold)",75.8 fold
